The source of these data is PMC11120612, “In Vitro and In Vivo Evaluating Bioaccessibility, Bioavailability, and Antioxidant Activities of Butterfly Pea Flower Containing Bioactive Constitutes” (Foods, 2024).

Details of data set [1]: method as in PMID 16848510. Particulars: cited from earlier work.
Data set [2] can be described thus: Identification of prototypes and metabolites in rat serum and urine by UPLC-LTQ-Orbitrap-MS2 after BF extracts. In kind it is in vivo, SD rats. Particulars: for Detected in serum and/or urine: rat, after gavage of BF extracts; for Location: rat serum or urine after 500 mg/kg BW BF extracts, UPLC-LTQ-Orbitrap-MS2. The source says: A total of 24 male SD rats aged between 6 and 8 weeks (200–220 g) were acquired from the Laboratory Animal Center of Jiangxi University of Chinese Medicine (Nanchang, China). […] During this period, they had free access to food and water. After adaptive feeding, rats were randomly divided into three groups (n = 8), including a negative control, serum collection, and urine collection groups. […] To establish baseline data, blood samples were collected from all rats before administering the BF extracts. […] Pretreatment of serum and urine samples was according to our previous study. The animal experiments were approved by the Animal Ethics Committee of Jiangxi University of Chinese Medicine (TEMPOR20230112).
The metabolic profile from blood and urine samples were conducted by UPLC-LTQ-Orbitrap-MS2 (Thermo Scientific, Bremen, Germany) according to previously published methods. The samples were prepared by SPE, centrifuged at 4 °C and 2000 rpm, and stored at −80 °C. […] The LTQ-Orbitrap-MS2 was operated in negative mode with a scan range of 50–2000 m/z. A data-dependent scan with CID was performed for fragmentation. The collision energy was set at 45 eV. Data acquisition and processing were performed with Xcalibur v.2.0 software (Thermo Fisher, San Jose, CA, USA) and Qualbrowser.

Data set [3] is described as follows: Serum pharmacokinetics in rats after consumption of 500 mg/kg BW of BF extracts. In kind it is in vivo, SD rats. Particulars: for Detection in rat plasma/blood after administration of BF extracts: 500 mg/kg BW BF extracts. How it is done:
A total of 24 male SD rats aged between 6 and 8 weeks (200–220 g) were acquired from the Laboratory Animal Center of Jiangxi University of Chinese Medicine (Nanchang, China). Prior to experimentation, the rats were acclimated for 7 days in an air-conditioned room maintained at 24 ± 1 °C with a 12 h light/dark cycle. During this period, they had free access to food and water. After adaptive feeding, rats were randomly divided into three groups (n = 8), including a negative control, serum collection, and urine collection groups. […] To establish baseline data, blood samples were collected from all rats before administering the BF extracts. Blood was collected from the orbits at 15 min, 30 min, 1 h, 1.5 h, 2 h, 4 h, 6 h, 8 h, and 10 h after drug administration. Urine was collected at 6, 12, and 24 h after administration. Pretreatment of serum and urine samples was according to our previous study. The animal experiments were approved by the Animal Ethics Committee of Jiangxi University of Chinese Medicine (TEMPOR20230112).
The quantification of substances identified was performed using an AB TRIPLE QUAD 4500 HPLC-MS2 (AB SCIEX, Framingham, MA, USA) system equipped with a C18 column (2.1 × 100 mm, 1.7 μm particle size; ACQUITY) at room temperature (25 °C). The mobile phase consisted of A (water containing 0.2% formic acid, v/v) and B (acetonitrile containing 0.2% formic acid, v/v) and the following binary program was used: 0–3 min, 5% B; 3–4 min, 95% B; 4–4.1 min, 95–5% B; 4.1–6.0 min, 5% B. The flow rate was 0.3 mL/min, and the injection volume was 10 μL. For sensitive detection and quantification, the analysis employed electrospray ionization (ESI) followed by multiple reaction monitoring (MRM) to selectively monitor the fragmentation patterns of the target analytes. Data acquisition and processing were performed with Qualbrowser.
Blood concentration/time data analysis was performed by non-compartment model analysis and processed using Peak View®1.6 (AB SCIEX), according to a previous publication. All data are presented as mean ± standard deviation (SD). The maximum plasma concentration (Cmax), and the time to reach the maximum plasma concentration (tmax) was calculated from the observed values.

Setting [4] is: rat serum, oral 500 mg/kg BW BF extracts, n = 8.
Setting [5] is: male, SD, rat serum, oral 500 mg/kg BW BF extracts, n = 8.

Like-named read-outs stand apart in the source and are kept apart here.

Take “delphinidin-3-p-coumaroyl-rutinoside-5-glucoside [nasunin]”: in data set [1], the “Time of rapid peak in rat plasma (postprandial)” value is recorded as 15 min.

Regarding `C[C@@H]1O[C@@H](OC[C@H]2O[C@@H](Oc3c(-c4ccc(O)c(O)c4)oc4cc(O)cc(O)c4c3=O)[C@H](O)[C@@H](O)[C@@H]2O)[C@H](O)[C@H](O)[C@H]1O` [rutin], the “Detected in serum and/or urine” value in data set [2] is listed as “exclusively in urine”.

A word on the Cmax: it is the peak of the concentration-time curve. Consider `OC[C@H]1O[C@@H](Oc2cc3c(O)cc(O)cc3[o+]c2-c2cc(O)c(O)c(O)c2)[C@H](O)[C@@H](O)[C@@H]1O` [Delphinidin 3-glucoside, delphinidin 3-glucoside], for which, in data set [3] (rat serum, oral 500 mg/kg BW BF extracts, 0 to 10 h, n = 8), the AUC0-10 worked out at 0.054654 ± 0.009089 µM·h. Besides, in data set [3] (setting [4]), the Cmax stood at 51.6 ± 3.2 nM, the t1/2 is 1.639 ± 0.271 h and the tmax was determined as 0.5 h. Moreover, in data set [3], the “Detection in rat plasma/blood after administration of BF extracts” value (“Detection in rat plasma/blood” below) is listed as “detected”. In data set [2], the Location result was “S, U”; the “Detected in serum and/or urine” value is “both serum and urine”.

Consider `COc1cc(C(=O)O)ccc1O[C@@H]1O[C@H](C(=O)O)[C@@H](O)[C@H](O)[C@H]1O` [M12, VA-4-glucuronide], for which, in data set [2], the Location result is recorded as “S”.

`O=C(O)c1ccc(O)c(OC2OC(C(=O)O)C(O)C(O)C2O)c1` (stereo not shown) [M11, PCA-3-glucuronide]: in data set [2], the Location result was “S”.

Broadly, the half-life is the time needed for the level to fall by half in the phase considered. Low readings indicate rapid decline, high ones slow decline. Turning to `O=C(O)c1ccc(O)cc1` [4-Hydroxybenzoic acid, 4-hydroxybenzoic acid], in data set [3] (male, SD, rat serum, oral 500 mg/kg BW BF extracts, 0 to 10 h, n = 8, read-out: AUC0-10), the AUC(0-t) is 0.0313 ± 0.00191 µM·h. Besides, in data set [3] (setting [5]), the concentration peaked (Cmax) at 6.98 ± 0.805 nM and the half-life is 6.48 ± 5.16 h. Besides, the tmax in data set [3] (male, SD, rat serum, oral 500 mg/kg BW BF extracts, n = 8, read-out: tmax) is 1 h. For the same compound, in data set [3], the “Detection in rat plasma/blood” value was “detected”.

Regarding benzoic acid-4-glucuronide [M19], the Location result in data set [2] is given as “S, U”.

Turning to `O=C([O-])CC(=O)OC[C@H]1O[C@@H](Oc2cc3c(O)cc(O)cc3[o+]c2-c2cc(O[C@@H]3O[C@H](COC(=O)/C=C/c4ccc(O[C@@H]5O[C@H](COC(=O)/C=C/c6ccc(O)cc6)[C@@H](O)[C@H](O)[C@H]5O)cc4)[C@@H](O)[C@H](O)[C@H]3O)c(O)c(O[C@@H]3O[C@H](COC(=O)/C=C/c4ccc(O[C@@H]5O[C@H](COC(=O)/C=C/c6ccc(O)cc6)[C@@H](O)[C@H](O)[C@H]5O)cc4)[C@@H](O)[C@H](O)[C@H]3O)c2)[C@H](O)[C@@H](O)[C@@H]1O` [ternatin D1], the “Detection in rat plasma/blood” value in data set [3] was “not detected”.

On to `Oc1cc(O)c2cc(O)c(-c3cc(O)c(O)c(O)c3)[o+]c2c1` [M16, delphinidin], for which the Location entry in data set [2] was “S, U”.

With cyanidin-3-(p-coumaroyl) glucose, in data set [2], the Location result is given as “S” and the “Detected in serum and/or urine” value is “serum”.

On to `O=C(O)c1ccc(O[C@@H]2O[C@H](C(=O)O)[C@@H](O)[C@H](O)[C@H]2O)c(O)c1` [M13, PCA-4-glucuronide], for which, in data set [2], the Location result is “S, U”.
